Structures can show the parent of a compound that is named as a salt. Where two headings read alike, the source gives them in different places.
Experiments:
Format in all cases: in vivo
toxicity of amphetamine = assay: Amphetamine Aggregation Toxicity Reversal Assay (tranquilizer); conditions: 20 mg/kg oral; against 15 mg/kg intraperitoneal amphetamine sulfate; aggregated mice, survival up to 3 hours
Excerpt: Compounds of the invention are still further useful as tranquilizers due to their ability to reverse toxicity of amphetamine as measured in the Amphetamine Aggregation Toxicity Reversal Assay [Chance, M. R. A., J. Pharmacol. Exper. Therap. 87, pp. 214-219 (1946) and Proctor, C. D., Putts, J. T., Lundy, R. O., and Greenfield, E. J., Arch. Int. Pharmacodynam. 163, (1), pp. 79-86 (1966)]. In our assay "aggregated mice" mean 5 mice/group placed in such a manner as to yield 20 cm^2 of floor space per mouse. Animals are aggregated immediately after injection with amphetamine sulfate and then checked for survival up to 3 hours. For example, under these conditions an oral dosage of 20 mg/kg of body weight of 1-[3-(4-fluorobenzoyl)propyl]-4-(α-phenyl-2-tolyl)piperidine effects a 60% protection against the intraperitoneal dose of 15 mg/kg of amphetamine sulfate.

[1] = tested on: supra maximal electro shock (SES); assay: protection from supra maximal electro shock (SES), anticonvulsant
Protocol: Compounds of the present invention are further useful as anticonvulsant agents for mammals, as determined by the method of Woodbury, L. A. and Davenport, V. D., in Arch, Int. Pharmacodynam, Vol. 92, (1952) at pages 97-107. For example, the intraperitoneal dose of 17.6 mg/kg of body weight of 1-methyl-4-[-(4,fluorophenyl)-2-tolyl]-1,2,3,6-tetrahydropyridine hydrobromide produces an 83% protection from the effect of supra maximal electro shock (SES). Intraperitoneal doses of other representative compounds of the invention and their ability to protect from the effect of SES is shown below in Table IV.

[2] = tested on: tetrabenazine-induced ptosis; assay: inhibition of tetrabenazine-induced ptosis in mice (antidepressant assay); conditions: Mus musculus, ip, read-out: ED50 (50% inhibition from the ptosis of tetrabenazine-induced depression)
Excerpt: Thus, for instance, the intraperitoneal dosages at which the following compounds (ED50) effect a 50% inhibition from the ptosis of tetrabenazine-induced depression in mice are:
It is to be noted and stressed at this point that the substitution of a benzyl in the 2- or ortho position of the phenyl ring, in the compounds of the invention, is critical to biological especially antidepressant, activity. Where the benzyl is substituted in the 3- or meta position or the 4- or para position, the corresponding compound is relatively ineffective as compared to the 2-substituted compounds of the invention. In this regard, reference is made to the following Table II which illustrates such criticality in the form of intraperitoneal dosages at which a series (A. B. and C.) of 2-, 3- and 4-substituted compounds effect a 50% inhibition from the ptosis of tetrabenazine-induced depression in mice: […]

[3] = tested on: 2-phenyl-1,4-quinone induced writhing; assay: 2-phenyl-1,4-quinone induced writhing assay in mice (analgesia); conditions: for inhibition of writhing: 60 mg/kg p.o., comparison
Protocol: Compounds of the invention are also useful as analgesic agents due to their ability to alleviate pain in mammals. […] Exptl. Biol. Med., 95, 729 (1957)]. Thus, for example, a 50% inhibition in writhing is effected by the oral administration of 28.4 mg/kg of body weight of 4-acetoxy-1-methyl-4-(α-phenyl)-2-tolyl)piperidine hydrochloride. Other representative compounds of the invention and their respective ability to inhibit said writhing is shown below in Table III.

[4] = tested on: tetrabenazine-induced ptosis; assay: inhibition of tetrabenazine-induced ptosis in mice (antidepressant assay); conditions: 25 mg/kg intraperitoneal
[5] = intraperitoneal, mice, Table II (2-, 3- and 4-substituted series A, B, C)

**Q.** How did the “protection against amphetamine sulfate toxicity” value (toxicity of amphetamine) turn out when `O=C(CCCN1CCC(c2ccccc2Cc2ccccc2)CC1)c1ccc(F)cc1` [1-[3-(4-fluorobenzoyl)propyl]-4-(α-phenyl-2-tolyl)piperidine] was run?
**A.** 60%

**Q.** How did the “% SES Protection” value ([1]; 50 mg/kg intraperitoneal) turn out when `Cl.OC1(c2ccccc2Cc2ccccc2)CCN(Cc2ccccc2)C1` (stereo not drawn) [1-benzyl-3-(α-phenyl-2-tolyl)-3-pyrrolidinol hydrochloride] was run?
**A.** 83%

**Q.** With `ON1CCC(c2ccccc2Cc2ccccc2)CC1` [1-hydroxy-4-(α-phenyl-2-tolyl)piperidine] as the compound, how does the ED50 ([2]; intraperitoneal, mice, Table I) read?
**A.** 3 mg/kg

**Q.** `CN1CC=C(c2ccccc2Cc2ccccc2)CC1` [1-methyl-4-(α-phenyl-2-tolyl)-1,2,3,6-tetrahydropyridine] was tested. Which ED50 [2] did it give?
**A.** 8.8 mg/kg

**Q.** What does the source list for `CN1CCC(O)(c2ccccc2Cc2ccccc2)CC1` [1-methyl-4-(α-phenyl-2-tolyl)-4-piperidinol]?
**A.** ED50 [2]: 8 mg/kg; % Inhibition in Writhing ([3]; 50.0 mg/kg po, mice): 41%; % SES Protection ([1]; 36 mg/kg intraperitoneal): 50%

**Q.** `CCC(=O)OC1(c2ccccc2Cc2ccccc2)CCN(C)CC1.Cl` [1-methyl-4-(α-phenyl-2-tolyl)-4-propionyloxypiperidine hydrochloride] was tested. Which “% Inhibition in Writhing” value ([3]; 8.9 mg/kg sc, mice) did it give?
**A.** 50%

**Q.** What about the “% SES Protection” value ([1]; 50 mg/kg intraperitoneal) of the same compound?
**A.** 50%

**Q.** With `CN1CCC(c2ccccc2Cc2ccccc2)CC1.Cl` [1-methyl-4-(α-phenyl-2-tolyl)piperidine hydrochloride] as the compound, how does the ED50 [2, 5] read?
**A.** 2.5 mg/kg

**Q.** What about the “% Inhibition in Writhing” value ([3]; 61.7 mg/kg po, mice) of the same compound?
**A.** 50%

**Q.** And the “% SES Protection” value ([1]; 50 mg/kg intraperitoneal)?
**A.** 83%

**Q.** `CN1CC=C(c2cccc(Cc3ccccc3)c2)CC1` [1-methyl-4-(α-phenyl-3-tolyl)-1,2,3,6-tetrahydropyridine, reference compound] was tested. Which ED50 [2] did it give?
**A.** > 50 mg/kg

**Q.** For `CN1CCC(c2cccc(Cc3ccccc3)c2)CC1.O=C(O)C(=O)O` [1-methyl-4-(α-phenyl-3-tolyl)piperidine oxalate, reference compound], which ED50 [2, 5] is on record?
**A.** > 20 mg/kg

**Q.** With `CN1CC=C(c2ccc(Cc3ccccc3)cc2)CC1` [1-methyl-4-(α-phenyl-4-tolyl)-1,2,3,6-tetrahydropyridine, reference compound] as the compound, how does the ED50 [2] read?
**A.** > 50 mg/kg

**Q.** For `CN1CCC(c2ccc(Cc3ccccc3)cc2)CC1.O=C(O)C(=O)O` [1-methyl-4-(α-phenyl-4-tolyl)piperidine oxalate, reference compound], which ED50 [2, 5] is on record?
**A.** > 20 mg/kg

**Q.** `CN1CCC(O)(c2ccccc2Cc2ccc(F)cc2)CC1` [1-methyl-4-[α-(4-fluorophenyl)-2-tolyl]-4-piperidinol] was tested. Which ED50 [2] did it give?
**A.** 8.2 mg/kg

**Q.** What about the “% SES Protection” value ([1]; 23.3 mg/kg intraperitoneal) of the same compound?
**A.** 50%

**Q.** Which “% SES Protection” value ([1]; 25.6 mg/kg intraperitoneal) does the source give for `Br.COc1ccc(Cc2ccccc2C2=CCN(C)CC2)cc1` [1-methyl-4-[α-(4-methoxyphenyl)-2-tolyl]-1,2,3,6-tetrahydropyridine hydrobromide] here?
**A.** 50%

**Q.** Which “% SES Protection” value ([1]; 37.5 mg/kg intraperitoneal) does the source give for `Br.c1ccc(CCN2CCC(c3ccccc3Cc3ccccc3)CC2)cc1` [1-phenethyl-4-(α-phenyl-2-tolyl)piperidine hydrobromide] here?
**A.** 50%

**Q.** Which ED50 [2] does the source give for `C1=C(c2ccccc2Cc2ccccc2)CCNC1` [4-(α-phenyl-2-tolyl)-1,2,3,6-tetrahydropyridine] here?
**A.** 2.1 mg/kg

**Q.** What about the “% Inhibition in Writhing” value ([3]; 7.8 mg/kg sc, mice) of the same compound?
**A.** 50%

**Q.** For `Cl.OC1(c2ccccc2Cc2ccccc2)CCNCC1` [4-(α-phenyl-2-tolyl)-4-piperidinol hydrochloride], which ED50 ([2]; intraperitoneal, mice, Table I) is on record?
**A.** 5.4 mg/kg

**Q.** For `Cl.c1ccc(Cc2ccccc2C2CCNCC2)cc1` [4-(α-phenyl-2-tolyl)piperidine hydrochloride], which ED50 [2, 5] is on record?
**A.** 1.7 mg/kg

**Q.** For `Cl.c1ccc(Cc2cccc(C3CCNCC3)c2)cc1` [4-(α-phenyl-3-tolyl)piperidine hydrochloride, reference compound], which ED50 [2, 5] is on record?
**A.** > 20 mg/kg

**Q.** How did the ED50 [2, 5] turn out when `Cl.c1ccc(Cc2ccc(C3CCNCC3)cc2)cc1` [4-(α-phenyl-4-tolyl)piperidine hydrochloride, reference compound] was run?
**A.** > 20 mg/kg

**Q.** How did the ED50 [2] turn out when `Br.CN1CC=C(c2ccccc2Cc2ccc(F)cc2)CC1` [4-[α-(4-fluorophenyl)-2-tolyl]-1-methyl-1,2,3,6-tetrahydropyridine hydrobromide] was run?
**A.** 8 mg/kg

**Q.** And the “protection from the effect of supra maximal electro shock (SES)” value ([1]; 17.6 mg/kg intraperitoneal)?
**A.** 83%

**Q.** Which results are given for `CC(=O)OC1(c2ccccc2Cc2ccccc2)CCN(C)CC1.Cl` [4-acetoxy-1-methyl-4-(α-phenyl-2-tolyl)piperidine hydrochloride]?
**A.** inhibition in writhing ([3]; 28.4 mg/kg oral, mice): 50%; inhibition from the ptosis of tetrabenazine-induced depression [4]: 40%

**Q.** Which “% Inhibition in Writhing” value ([3]; 12.8 mg/kg sc, mice) does the source give for `CN1CCC(OC(=O)c2ccccc2)(c2ccccc2Cc2ccccc2)CC1.Cl` [4-benzoyloxy-1-methyl-4-(α-phenyl-2-tolyl)piperidine hydrochloride] here?
**A.** 50%

**Q.** `CC(=O)Oc1ccccc1C(=O)O` [aspirin, reference compound] was tested. Which inhibition of writhing [3] did it give?
**A.** 34%

**Q.** `CCC(=O)O[C@](Cc1ccccc1)(c1ccccc1)[C@H](C)CN(C)C` [propoxyphene hydrochloride, reference compound] was tested. Which inhibition of writhing [3] did it give?
**A.** 50%

Source: patent US4414219A, “Antidepressant (α-phenyl-2-tolyl)azacycloalkanols and derivatives thereof” (American Hoechst Corporation, priority 1980, dated 1983)
